According to patent publication US20260070922A1, “PYRAZOLE AND IMIDAZOLE DERIVATIVES AS DUAL OREXIN AND KAPPA-OPIOID RECEPTORS MODULATORS COMPOSITION, METHODS FOR TREATING NEUROLOGICAL AND PSYCHIATRIC DISORDERS” (HAGER BIOSCIENCES, LLC, priority 2022, published 2026):

Legend:
[1] = target: T1, human k-opioid receptor (kOR) (Homo sapiens, UniProt P41145); assay: Human k-opioid (KOP) receptor (agonist radioligand [3H]U-69593) binding assay, transfected RBL cell membranes; conditions: for inhibition at 1 µM: read-out: KOR % Inh. @ 1 uM; for IC50: first value of IC50/Ki cell; for Ki: second value of IC50/Ki cell
T1 construct: expressed in transfected cells; host or cells: RBL cells (membrane homogenates)
Protocol: Human k-Opioid (KOP) Receptor (Agonist Radioligand) Binding Assay
Purpose: Evaluation of the affinity of compounds for the human k-opioid receptor in transfected RBL cells determined in a radioligand binding assay.
Experimental protocol: Cell membrane homogenates (about 80 μg protein) are incubated for 60 min at 22° C. with 0.5 nM [3H]U-69593 in the absence or presence of the test compound in a buffer containing 50 mM Tris-HCl (pH 7.4), 10 mM MgCl2 and 1 mM EDTA. Nonspecific binding is determined in the presence of 10 μM naloxone. Following incubation, the samples are filtered rapidly under vacuum through glass fiber filters ([…], Packard) presoaked with 0.3% PEI and rinsed several times with ice-cold 50 mM Tris-HCl using a 96-sample cell harvester (Unifilter, Packard). The filters are dried then counted for radioactivity in a scintillation counter (Topcount, Packard) using a scintillation cocktail (Microscint 0, Packard). The results are expressed as a percent inhibition of the control radioligand specific binding. The standard reference compound is U-50488, which is tested in each experiment at several concentrations to obtain a competition curve from which its IC50 is calculated.

[2] = target: T2, human orexin-2 receptor (OX2R) (Homo sapiens, UniProt O43614); assay: In vitro orexin antagonism assay: intracellular calcium measurement (FLIPR), orexin-A 3 nM as agonist; assay type: cell-based; conditions: for inhibition at 1 µM: read-out: OX2R, % Inh. @ 1 uM; for IC50: first value of IC50/Kb cell; for Kb: second value of IC50/Kb cell
T2 construct: expressed in transfected cells; host or cells: CHO cells (G418 selection)
T2 sequence (O43614 1-444): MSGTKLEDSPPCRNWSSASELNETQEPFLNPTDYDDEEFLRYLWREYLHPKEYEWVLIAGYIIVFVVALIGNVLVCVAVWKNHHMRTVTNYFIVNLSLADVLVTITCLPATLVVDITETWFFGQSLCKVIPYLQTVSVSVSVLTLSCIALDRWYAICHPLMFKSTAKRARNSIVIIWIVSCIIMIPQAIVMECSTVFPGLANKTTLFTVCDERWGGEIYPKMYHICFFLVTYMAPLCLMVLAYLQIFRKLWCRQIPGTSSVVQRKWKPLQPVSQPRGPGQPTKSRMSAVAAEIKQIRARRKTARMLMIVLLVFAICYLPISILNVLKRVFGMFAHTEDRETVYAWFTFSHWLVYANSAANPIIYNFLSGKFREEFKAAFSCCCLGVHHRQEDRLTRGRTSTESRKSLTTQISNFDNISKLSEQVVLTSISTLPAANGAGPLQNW
How it was run: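 Fluorescence peak on 3 nM orexin-A challenge, read by FLIPR and compared with vehicle, yields IC50 (geometric mean when repeated; may be normalized to an on-plate reference). Antagonists were added 120 min beforehand to fluo-4-loaded recombinant CHO cells expressing human OX1R or OX2R.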

[3] = target: T3, Orexin type 1 (OX1R) receptor (Homo sapiens, UniProt O43613); assay: as above; assay type: cell-based; conditions: for IC50: first value of IC50/Kb cell; for inhibition at 1 µM: read-out: OX1R, % Inh. @ 1 uM; for Kb: second value of IC50/Kb cell
T3 construct: expressed in transfected cells; host or cells: CHO cells (G418 selection)
T3 sequence (O43613 1-425): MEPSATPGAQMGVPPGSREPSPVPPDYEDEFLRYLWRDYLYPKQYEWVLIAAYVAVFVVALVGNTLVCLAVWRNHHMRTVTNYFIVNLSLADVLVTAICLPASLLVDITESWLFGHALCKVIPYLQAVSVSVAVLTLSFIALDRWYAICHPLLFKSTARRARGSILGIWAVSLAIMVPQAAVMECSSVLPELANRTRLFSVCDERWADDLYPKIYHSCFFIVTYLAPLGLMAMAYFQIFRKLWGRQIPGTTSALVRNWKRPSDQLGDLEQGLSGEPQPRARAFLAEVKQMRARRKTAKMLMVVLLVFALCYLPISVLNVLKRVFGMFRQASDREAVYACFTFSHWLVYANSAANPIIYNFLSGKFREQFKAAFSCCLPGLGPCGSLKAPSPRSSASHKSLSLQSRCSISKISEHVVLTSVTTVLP
How it was run: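 CHO cells expressing the human orexin receptor were loaded with 3 μM fluo-4 AM plus 5 mM probenecid, then exposed to antagonist for 120 min before 3 nM orexin-A (final) was added on a FLIPR.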

T1 sequence (P41145 whole entry): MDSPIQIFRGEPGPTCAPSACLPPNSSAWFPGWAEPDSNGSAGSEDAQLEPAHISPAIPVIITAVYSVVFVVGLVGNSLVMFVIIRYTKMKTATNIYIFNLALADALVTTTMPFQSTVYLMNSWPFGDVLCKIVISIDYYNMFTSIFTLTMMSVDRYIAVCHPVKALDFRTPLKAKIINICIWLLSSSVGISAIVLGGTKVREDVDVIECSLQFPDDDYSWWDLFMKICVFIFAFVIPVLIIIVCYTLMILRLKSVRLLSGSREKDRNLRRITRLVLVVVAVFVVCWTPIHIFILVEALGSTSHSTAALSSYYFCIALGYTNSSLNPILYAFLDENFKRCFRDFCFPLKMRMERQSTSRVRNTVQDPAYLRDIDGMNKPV

Row | Structure (SMILES) | inhibition at 1 µM [1] [%] | inhibition at 1 µM [2] [%] | IC50 [3] [nM] | inhibition at 1 µM [3] [%] | Kb [3] [nM] | KOR % Inh. @ 1 uM [1] [%] | IC50 [1] [nM] | Ki [1] [nM] | OX2R, % Inh. @ 1 uM [2] [%] | IC50 [2] [nM] | Kb [2] [nM] | OX1R, % Inh. @ 1 uM [3] [%]
1 | O=C(c1c(-c2ccccc2)nn2c1COCC2)N1CCCC[C@H]1COc1ccc(C(F)(F)F)cn1 [Example 46] | 38 | 25.3 | 7 | 94.8 | 1 | – | – | – | – | – | – | –
2 | O=C(c1c(-c2ccc(F)cc2)nn2ccccc12)N1CCC[C@H]1Cn1ccc(-c2ccc(F)cc2)n1 [Example 55] | – | – | 5 | – | 1 | 66 | 480 | 260 | 93 | 33 | 5 | 100
3 | O=C(c1c(-c2ccc(F)cc2)nn2ccccc12)N1CCC[C@H]1Cn1ccc(-c2ccc(C(F)(F)F)cc2)n1 [Example 56] | – | – | 576 | – | 121 | 76 | 450 | 250 | 12 | – | – | 59
4 | O=C(c1c(-c2ccccc2)nn2c1COCC2)N1CCC[C@H]1Cn1ccc(-c2ccc(F)cc2)n1 [Example 57] | – | – | 65 | – | 14 | 76 | 440 | 240 | 52 | 773 | 107 | 73
5 | O=C(c1c(-c2ccccc2)nn2ccccc12)N1CCC[C@H]1Cn1ccc(-c2ccc(F)cc2)n1 [Example 59] | – | – | 4 | – | 0.7 | 56 | 470 | 260 | 99 | 11 | 2 | 91
6 | O=C(c1c(-c2ccccc2)nn2ccccc12)N1CCC[C@H]1Cn1ccc(-c2ccc(C(F)(F)F)cc2)n1 [Example 60] | – | – | 106 | – | 22 | 63 | 390 | 210 | 37 | – | – | 78
7 | O=C(c1c(-c2ccc(F)cc2)nc2ccccn12)N1CCC[C@H]1Cn1ccc(-c2ccc(F)cc2)n1 [Example 61] | – | – | 29 | – | 6 | 74 | 280 | 150 | 73 | 76 | 10 | 85
8 | O=C(c1c(-c2ccccc2F)nc2ccccn12)N1CCC[C@H]1Cn1ccc(-c2ccc(F)cc2)n1 [Example 62] | – | – | 6 | – | 1 | 79 | 200 | 110 | 85.23 | 26 | 4 | 96.96
9 | O=C(c1c(-c2ccccc2F)nn2ccccc12)N1CCC[C@H]1Cn1ccc(-c2ccc(F)cc2)n1 [Example 63] | – | – | 4 | – | 0.8 | 75 | 280000 | – | 100 | 6 | 0.9 | 98
10 | O=C(c1c(-c2ccccc2F)nn2ccccc12)N1CCC[C@H]1COc1ccc(C(F)(F)F)cn1 [Example 64] | 37 | 67 | 11 | 81 | 2 | – | – | – | – | 275 | 38 | –
11 | O=C(c1c(-c2ccccc2F)nc2ccccn12)N1CCC[C@H]1COc1ccc(C(F)(F)F)cn1 [Example 65] | 11 | 41 | 53 | 64 | 11 | – | – | – | – | – | – | –
12 | O=C(c1c(-c2ccccc2F)nn2c1COCC2)N1CCC[C@H]1Cn1ccc(-c2ccc(F)cc2)n1 [Example 66] | – | – | 33 | – | 7 | 77 | 220 | 120 | 68 | 131 | 18 | 84
13 | O=C(c1c(-c2ccccc2F)nn2ccccc12)N1CCC[C@H]1Cn1ccc(-c2ccccn2)n1 [Example 67] | 27 | 74 | 13 | 100 | 3 | – | – | – | – | 20 | 4 | –
14 | O=C(c1c(-c2ccccc2F)nn2ccccc12)N1CCC[C@H]1Cn1cc(-c2ccccn2)cn1 [Example 68] | 48 | 64 | 47 | 82 | 10 | – | – | – | – | 170 | 30 | –
15 | O=C(c1c(-c2ccccc2)nc2ccc(F)cn12)N1CCC[C@H]1Cn1ccc(-c2ccccn2)n1 [Example 73] | 37 | 48 | 9 | 82 | 2 | – | – | – | – | – | – | –
16 | O=C(c1c(-c2ccccc2)nc2cc(C(F)(F)F)ccn12)N1CCC[C@H]1Cn1ccc(-c2ccccn2)n1 [Example 78] | 52 | 55 | 160 | 78 | 34 | – | – | – | – | 270 | 48 | –
17 | O=C(c1c(-c2ccccc2F)nn2ccccc12)N1CCC[C@H]1Cn1cc(-c2ccc(F)cn2)cn1 [Example 82] | 33 | 74 | 220 | 85 | 10 | – | – | – | – | 46 | 10 | –
